# Data as given in US5696083A, “Personal care composition containing pyrithione and polymyxin” (Olin Corporation, priority 1994, dated 1997).
# Tests used:
# Format in all cases: cell-based
# [1] = test system: Alcaligens faecalis; assay: MIC in Tryptic Soy Broth, compounds alone and in mixtures; conditions: Table 2, 28° C., 6 days
# Experimental: (§1) Determinations of minimum inhibitory concentrations (MIC's) of the two compounds (pyrithione salts and/or polymyxin sulfate) in a nutrient broth (alone and in mixtures) were conducted to evaluate interactions. Stock solutions of pyrithione salts and/or polymyxin salts were diluted in Tryptic Soy Broth (Difco), and the dilutions were inoculated with an equal volume of bacterial culture (10^6 /ml) or fungal spore suspension (10^5 /ml) in Tryptic Soy Broth and incubated at 28° C. for 3-7 days.
# (§2) The interactions of the antimicrobials were determined according to accepted procedures (M. C. Berenbaum [Tables 1 and 2] and P. F. Dougherty "Microdilution Transfer Plate Technique for Determining In Vitro Synergy of Antimicrobial Agents", ANTIMICROBIAL AGENTS AND CHEMOTHERAPY, Vol. 11, No. 2, p. 225-228 (Feb. 1977, American Society for Microbiology) [Tables 3 and 4]). The concentration of each agent in the combination that inhibits the organisms is expressed as a fraction of the concentration that causes the same effect when the same agent is tested alone (i.e., its fractional inhibitory concentration, FIC). If the sum of the FIC's is 1, the combination is additive in its antimicrobial effect; if the sum is <1, the combination is synergistic; and if the sum is >1, the combination is antagonistic.
# (§3) ^a Compounds were serially diluted in Tryptic soy Broth (DIFCO),
# (§4) ^b Each dilution contained 10^6 bacteria/ml of 10^5 fungi/ml.
# (§5) ^a Stock solutions of ZP in dimethylsulfoxide and PB in sterile water
# [2] = test system: Aspergillus niger; assay: as above; conditions: Table 2, 28° C., 7 days
# Experimental: as §1, §2, §3, §4, §5
# [3] = test system: Aureobasidium pullulans; assay: as above; conditions: Table 2, 28° C., 7 days
# Experimental: as §1, §2, §3, §4, §5
# [4] = test system: Candida albicans; assay: as above; conditions: Table 2, 28° C., 7 days
# Experimental: as §1, §2, §3, §4, §5
# [5] = test system: Cephalosporium sp.; assay: as above; conditions: Table 2, 28° C., 7 days
# Experimental: as §1, §2, §3, §4, §5
# [6] = test system: Chaetomium globosium; assay: as above; conditions: Table 2, 28° C., 7 days
# Experimental: as §1, §2, §3, §4, §5
# [7] = test system: Citrobacter freundii; assay: as above; conditions: Table 2, 28° C., 6 days
# Experimental: as §1, §2, §3, §4, §5
# [8] = test system: Fusarium solani; assay: as above; conditions: Table 2, 28° C., 7 days
# Experimental: as §1, §2, §3, §4, §5
# [9] = test system: Gliocladium virens; assay: as above; conditions: Table 2, 28° C., 7 days
# Experimental: as §1, §2, §3, §4, §5
# [10] = test system: Penicillin pinophilium; assay: as above; conditions: Table 2, 28° C., 7 days
# Experimental: as §1, §2, §3, §4, §5
# [11] = test system: Proteus mirabilis; assay: as above; conditions: Table 2, 28° C., 6 days
# Experimental: as §1, §2, §3, §4, §5
# [12] = test system: Pseudomonas Stutzeri; assay: as above; conditions: Table 2, 28° C., 6 days
# Experimental: as §1, §2, §3, §4, §5
# [13] = test system: Pseudomonas aeruginosa; assay: as above; conditions: Table 2, 28° C., 6 days
# Experimental: as §1, §2, §3, §4, §5
# [14] = test system: Pseudomonas fluorescens; assay: as above; conditions: Table 2, 28° C., 6 days
# Experimental: as §1, §2, §3, §4, §5
# [15] = test system: Pseudomonas oleovorans; assay: as above; conditions: Table 2, 28° C., 6 days
# Experimental: as §1, §2, §3, §4, §5
# [16] = test system: Pseudomonas rubescens; assay: as above; conditions: Table 2, 28° C., 6 days
# Experimental: as §1, §2, §3, §4, §5
# [17] = test system: Trichophyton mentagrophytes; assay: as above; conditions: Table 2, 28° C., 7 days
# Experimental: as §1, §2, §3, §4, §5
# [18] = test system: Fusarium sp.; assay: as above; conditions: Table 2, 28° C., 7 days
# Excerpt: as §3, §4, §5
# [19] = test system: Candida albicans; assay: Checkerboard MIC Test in Tryptic Soy Broth; conditions: Table 4, 28° C., 5 days
# Experimental: as §1, §2, §4
# [20] = test system: Proteus mirabilis; assay: Checkerboard MIC Test in Tryptic Soy Broth; conditions: Table 4, 28° C., 3 days
# Experimental: as §1, §2, §4
# [21] = test system: Pseudomonas aeruginosa; assay: Checkerboard MIC Test in Tryptic Soy Broth; conditions: Table 4, 28° C., 3 days
# Experimental: as §1, §2, §4
# [22] = test system: Pseudomonas fluorescens; assay: Checkerboard MIC Test in Tryptic Soy Broth; conditions: Table 4, 28° C., 3 days
# Experimental: as §1, §2, §4
# [23] = test system: Trichophyton mentagrophytes; assay: Checkerboard MIC Test in Tryptic Soy Broth; conditions: Table 4, 28° C., 5 days
# Experimental: as §1, §2, §4
# [24] = alone, Tryptic Soy Broth, PB sulfate 7730 units/mg
# [25] = concentration of the component in ZP+PB mixture, ZP/PB ratio 1/32-1/8
# [26] = concentration of the component in ZP+PB mixture, ZP/PB ratio 1/8-1
# [27] = alone, checkerboard, PE methanesulfonate, Na+, 14,310 units/mg
substance,measurement,setting,value
zinc pyrithione [ZP],"Minimum Inhibitory Concentration, Compound Used Alone",[1]; [24],10.7 ppm
same,"Minimum Inhibitory Concentration, Mixture","[1]; concentration of the component in ZP+PB mixture, ZP/PB ratio 8-32",6.7 ppm
same,"Minimum Inhibitory Concentration, Compound Used Alone",[2]; [24],32.0 ppm
same,"Minimum Inhibitory Concentration, Mixture",[2]; [25],16.0 ppm
same,"Minimum Inhibitory Concentration, Compound Used Alone",[3]; [24],8.0 ppm
same,"Minimum Inhibitory Concentration, Mixture","[3]; concentration of the component in ZP+PB mixture, ZP/PB ratio 1/32-1/16",4.0 ppm
same,"Minimum Inhibitory Concentration, Compound Used Alone",[4]; [24],8.0 ppm
same,"Minimum Inhibitory Concentration, Mixture",[4]; [25],4.0 ppm
same,"Minimum Inhibitory Concentration, Compound Used Alone",[5]; [24],16.0 ppm
same,"Minimum Inhibitory Concentration, Mixture","[5]; concentration of the component in ZP+PB mixture, ZP/PB ratio 1/16-1/8",4.0 ppm
same,"Minimum Inhibitory Concentration, Compound Used Alone",[6]; [24],67.0 ppm
same,"Minimum Inhibitory Concentration, Mixture",[6]; [26],13.3 ppm
same,"Minimum Inhibitory Concentration, Compound Used Alone",[7]; [24],8.0 ppm
same,"Minimum Inhibitory Concentration, Mixture","[7]; concentration of the component in ZP+PB mixture, ZP/PB ratio 16-64",3.3 ppm
same,"Minimum Inhibitory Concentration, Compound Used Alone",[8]; [24],64.0 ppm
same,"Minimum Inhibitory Concentration, Mixture",[8]; [26],13.3 ppm
same,"Minimum Inhibitory Concentration, Compound Used Alone",[9]; [24],80.0 ppm
same,"Minimum Inhibitory Concentration, Mixture","[9]; concentration of the component in ZP+PB mixture, ZP/PB ratio 1-2",24.0 ppm
same,"Minimum Inhibitory Concentration, Compound Used Alone",[10]; [24],16.0 ppm
same,"Minimum Inhibitory Concentration, Mixture","[10]; concentration of the component in ZP+PB mixture, ZP/PB ratio 1/8",4.0 ppm
same,"Minimum Inhibitory Concentration, Compound Used Alone",[11]; [24],4.0 ppm
same,"Minimum Inhibitory Concentration, Mixture","[11]; concentration of the component in ZP+PB mixture, ZP/PB ratio 1/32",2.0 ppm
same,"Minimum Inhibitory Concentration, Compound Used Alone",[12]; [24],4.0 ppm
same,"Minimum Inhibitory Concentration, Mixture","[12]; concentration of the component in ZP+PB mixture, ZP/PB ratio 16-128",4.0 ppm
same,"Minimum Inhibitory Concentration, Compound Used Alone",[13]; [24],288.0 ppm
same,"Minimum Inhibitory Concentration, Mixture","[13]; concentration of the component in ZP+PB mixture, ZP/PB ratio 128-256",112.0 ppm
same,"Minimum Inhibitory Concentration, Compound Used Alone",[14]; [24],106.7 ppm
same,"Minimum Inhibitory Concentration, Mixture","[14]; concentration of the component in ZP+PB mixture, ZP/PB ratio 8-16",4.7 ppm
same,"Minimum Inhibitory Concentration, Compound Used Alone",[15]; [24],6.7 ppm
same,"Minimum Inhibitory Concentration, Mixture","[15]; concentration of the component in ZP+PB mixture, ZP/PB ratio 16-32",4.0 ppm
same,"Minimum Inhibitory Concentration, Compound Used Alone",[16]; [24],3.3 ppm
same,"Minimum Inhibitory Concentration, Mixture","[16]; concentration of the component in ZP+PB mixture, ZP/PB ratio 256",3.3 ppm
same,"Minimum Inhibitory Concentration, Compound Used Alone",[17]; [24],8.0 ppm
same,"Minimum Inhibitory Concentration, Mixture","[17]; concentration of the component in ZP+PB mixture, ZP/PB ratio 1/4-1/2",8.0 ppm
same,"Minimum Inhibitory Concentration, Compound Used Alone",[18]; [24],64.0 ppm
same,"Minimum Inhibitory Concentration, Mixture",[18]; [26],18.7 ppm
same,"Minimum Inhibitory Concentration, Compound Used Alone",[19]; [27],16 ppm
same,"Minimum Inhibitory Concentration, Mixture Range","[19]; concentration of the component in ZP+PE mixtures, ZP/PE range 1/2048-1/4",1-8 ppm
same,"Minimum Inhibitory Concentration, Compound Used Alone",[20]; [27],8 ppm
same,"Minimum Inhibitory Concentration, Mixture Range","[20]; concentration of the component in ZP+PE mixtures, ZP/PE range 1/1024",4 ppm
same,"Minimum Inhibitory Concentration, Compound Used Alone",[21]; [27],128 ppm
same,"Minimum Inhibitory Concentration, Mixture Range","[21]; concentration of the component in ZP+PE mixtures, ZP/PE range 2-8",16-32 ppm
same,"Minimum Inhibitory Concentration, Compound Used Alone",[22]; [27],64 ppm
same,"Minimum Inhibitory Concentration, Mixture Range","[22]; concentration of the component in ZP+PE mixtures, ZP/PE range ≤1/128-4",≤1-16 ppm
same,"Minimum Inhibitory Concentration, Compound Used Alone",[23]; [27],16 ppm
same,"Minimum Inhibitory Concentration, Mixture Range","[23]; concentration of the component in ZP+PE mixtures, ZP/PE range 1/4-4",8-16 ppm
